Source: patent US12492199B2, “Pyridopyrimidines as histamine H4-receptor inhibitors” (FAES FARMA, S.A., priority 2018, dated 2025)
Like-named read-outs stand apart in the source and are kept apart here.

Key:
human H4 receptor = human H4 receptor (Homo sapiens (Human), UniProt Q9H3N8); test: H4 Binding assay ([3H]histamine competition, membranes from CHO-K1 cells transfected with human H4 receptor); conditions: for IC50 / inhibition at 1 µM: histamine H4 receptor binding; for inhibition at 1 µM: compounds initially evaluated at 1 μM
human H4 receptor, sequence (Q9H3N8 whole entry): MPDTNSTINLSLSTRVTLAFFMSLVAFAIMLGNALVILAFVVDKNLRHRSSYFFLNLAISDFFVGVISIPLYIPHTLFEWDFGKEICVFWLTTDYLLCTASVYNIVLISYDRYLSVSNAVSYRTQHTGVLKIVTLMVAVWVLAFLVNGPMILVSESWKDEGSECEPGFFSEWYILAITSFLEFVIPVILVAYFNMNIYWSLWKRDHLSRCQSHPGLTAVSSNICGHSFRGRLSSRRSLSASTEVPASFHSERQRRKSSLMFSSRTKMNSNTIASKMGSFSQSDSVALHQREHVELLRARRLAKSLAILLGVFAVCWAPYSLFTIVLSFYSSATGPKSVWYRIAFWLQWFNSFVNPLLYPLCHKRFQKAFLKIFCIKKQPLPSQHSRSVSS
Protocol: Affinity for histamine H4-receptor was determined by H4 Binding assay:
• Membranes from CHO-K1 cells transfected with human H4 receptor and microplates of 96-well format were used. • For competition studies cell membranes were homogenated in Tris-HCl 50 mM, EDTA 5 mM, pH 7.4 and added to the microplate at the concentration of approximately 15 μg/well. […] Non specific binding was defined using 10 μM unlabeled histamine and the total incubation volume was 275 μl per well. • Incubations were performed under gentle agitation at 25° C. for 60 min and concluding with a rapid vacuum filtration using pre-soaked filters (0.5% polyethylenimine). After ten rapid washes with cold wash buffer (50 mM Tris-HCl buffer) the filter plates were dried at room temperature for 30 min. • Finally, scintillation liquid (Microscint 20) was added to the whole microplate in order to measure the radioactivity reattained on the filters using a specific scintillation counter (Top Count—NXT). […] H1 Binding Assay Materials

human H1 receptor = human H1 receptor (Homo sapiens (Human), UniProt P35367); test: H1 Binding assay ([3H]pyrilamine competition, membranes from CHO-K1 cells transfected with human H1 receptor); conditions: affinity for human histamine H1 receptor, class symbols; — not defined in key; read-out: ACTIVITY CLASS hH1R (Ki)
human H1 receptor, sequence (P35367 whole entry): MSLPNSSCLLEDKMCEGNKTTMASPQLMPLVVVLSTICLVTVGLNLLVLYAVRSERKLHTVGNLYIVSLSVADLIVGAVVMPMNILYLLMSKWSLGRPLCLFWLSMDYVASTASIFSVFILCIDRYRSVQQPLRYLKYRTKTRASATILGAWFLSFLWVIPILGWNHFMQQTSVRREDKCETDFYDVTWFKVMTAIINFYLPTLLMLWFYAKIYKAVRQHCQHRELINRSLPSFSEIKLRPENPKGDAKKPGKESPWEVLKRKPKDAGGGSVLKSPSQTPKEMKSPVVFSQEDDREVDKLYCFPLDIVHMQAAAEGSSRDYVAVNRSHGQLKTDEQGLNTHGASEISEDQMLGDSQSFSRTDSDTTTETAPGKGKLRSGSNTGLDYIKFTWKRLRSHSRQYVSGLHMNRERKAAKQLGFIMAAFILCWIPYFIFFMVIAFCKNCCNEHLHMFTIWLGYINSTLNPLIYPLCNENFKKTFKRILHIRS
Protocol: Cetirizine and pyrilamine were supplied by Sigma-Aldrich. Bilastine was synthetized at FAES FARMA facilities (Lamiako-Leioa, Spain), chemical reagents such as Na2HPO4, KH2PO4 or polyvinylpyrrolidone as well as multiscreen microplates (MSFBN6B50) were purchased from Merck Millipore, scintillation liquid (Microscint 20), human H1 membranes (ES-390-M400UA) and ^3H-pirilamina (NET 594) were provided by PerkinElmer.
Affinity for histamine H1-receptor was determined by H1 Binding assay: • Membranes form CHO-K1 cells transfected with human H1 receptor and microplates of 96-well format were used. • For competition studies cell membranes were homogenated in 50 mM phosphate buffer (Na2HPO4 and KH2PO4 mixed to pH 7.4 at 25° C.) and added to the microplate at the concentration of approximately 5 μg/well. […] Non specific binding was defined using 10 μM unlabeled pyrilamine and the total incubation volume was 275 μl per well. • Incubations were performed until gentle agitation at 25° C. for 60 min and concluding with a rapid vacuum filtration using pre-soaked filters (5% polyvinylpyrrolidone). After ten rapid washes with cold wash buffer (50 mM phosphate buffer) the filter plates were dried at room temperature for 30 min. • Finally, scintillation liquid (Microscint 20) was added to the whole microplate in order to measure the radioactivity retained on the filters using an specific scintillation counter (Top Count—NXT). Curve analysis and values of IC50 were determined using Grap Pad Prism program (GraphPad Software, San Diego, USA). • Test compounds were initially evaluated at one concentration (1 μM) and thereafter if significant displacement was observed (>40%) a concentration-response curve was conducted. Each test concentration was measured in triplicate. • As reference compounds pyrilamine, cetirizine and Bilastine were used.

[1] = affinity for human histamine H4 receptor, class symbols, read-out: ACTIVITY CLASS hH4R (Ki)
[2] = histamine H4 receptor, comparative compounds, read-out: Ki

Q: With `CN1CCN(c2nc(NCC[S+]([O-])Cc3ccccc3)c3cc(Cl)ncc3n2)CC1` (stereo not shown) [Example 95, N-(2-(benzylsulfinyl)ethyl)-6-chloro-2-(4-methylpiperazin-1-yl)pyrido[3,4-d]pyrimidin-4-amine] as the molecule, how does the Ki (human H4 receptor; [1]) read?
A: The Ki was less than 100 nM.

Q: And the Ki (human H1 receptor)?
A: The Ki was less than 1000 nM.

Q: For `Cc1ccsc1CNc1nc(N2CCN(C)CC2)nc2cnc(Cl)cc12` [Example 68, 6-chloro-2-(4-methylpiperazin-1-yl)-N-((3-methylthiophen-2-yl)methyl)pyrido[3,4-d]pyrimidin-4-amine], which Ki (human H4 receptor; [1]) is on record?
A: Its Ki is less than 1000 nM.

Q: And the Ki (human H1 receptor)?
A: Its Ki is less than 1000 nM.

Q: What does the source list for `CN1CCN(c2nc(NCc3cccs3)c3cc(Cl)ncc3n2)CC1` [Example 3, 6-chloro-2-(4-methylpiperazin-1-yl)-N-(thiophen-2-ylmethyl)pyrido[3,4-d]pyrimidin-4-amine]?
A: Ki (human H4 receptor; [1]): < 100 nM; IC50 (human H4 receptor): 1.74 nM; inhibition at 1 µM (human H4 receptor): 94%; Ki (human H4 receptor; [2]): 0.75 nM; Ki (human H1 receptor): < 1000 nM

Q: For `CN1CCN(c2nc(NCCS(=O)(=O)c3ccccc3)c3cc(Cl)ncc3n2)CC1` [Example 93, 6-chloro-2-(4-methylpiperazin-1-yl)-N-(2-(phenylsulfonyl)ethyl)pyrido[3,4-d]pyrimidin-4-amine], which Ki (human H4 receptor; [1]) is on record?
A: The Ki was less than 100 nM.

Q: What about the Ki (human H1 receptor) of the same molecule?
A: Its Ki is less than 1000 nM.

Q: Which results are given for `CN1CCN(c2nc(NCc3ccco3)c3cc(Cl)ncc3n2)CC1` [Example 4, 6-chloro-N-(furan-2-ylmethyl)-2-(4-methylpiperazin-1-yl)pyrido[3,4-d]pyrimidin-4-amine]?
A: Ki (human H4 receptor; [1]): < 100 nM; Ki (human H1 receptor): < 1000 nM

Q: What does the source list for `Cc1cc2c(NCc3cccs3)nc(N3CCNCC3)nc2cn1` [Example 60, 6-methyl-2-(piperazin-1-yl)-N-(thiophen-2-ylmethyl)pyrido[3,4-d]pyrimidin-4-amine]?
A: Ki (human H4 receptor; [1]): < 1000 nM; Ki (human H1 receptor): < 1000 nM

Q: Which results are given for `Clc1cc2c(NCc3cccs3)nc(N3CCNCC3)nc2cn1` [Example 24, 6-chloro-2-(piperazin-1-yl)-N-(thiophen-2-ylmethyl)pyrido[3,4-d]pyrimidin-4-amine]?
A: Ki (human H4 receptor; [1]): < 100 nM; Ki (human H1 receptor): < 1000 nM

Q: What does the source list for `Clc1cc2c(NCc3ccco3)nc(N3CCNCC3)nc2cn1` [Example 25, 6-chloro-N-(furan-2-ylmethyl)-2-(piperazin-1-yl)pyrido[3,4-d]pyrimidin-4-amine]?
A: Ki (human H4 receptor; [1]): < 1000 nM; Ki (human H1 receptor): < 1000 nM

Q: Which Ki (human H4 receptor; [1]) does the source give for `CC(C)c1cc2c(NCCS(=O)(=O)Nc3ccccc3)nc(N3CCN(C)CC3)nc2cn1` [Example 54, 2-((6-isopropyl-2-(4-methylpiperazin-1-yl)pyrido[3,4-d]pyrimidin-4-yl)amino)-N-phenylethane-1-sulfonamide] here?
A: Its Ki is less than 100 nM.

Q: What about the Ki (human H1 receptor) of the same molecule?
A: Its Ki is less than 1000 nM.

Q: With `CN1CCN(c2nc(NCCS(=O)(=O)N(C)c3ccccc3)c3cc(Cl)ncc3n2)CC1` [Example 17, 2-((6-chloro-2-(4-methylpiperazin-1-yl)pyrido[3,4-d]pyrimidin-4-yl)amino)-N-methyl-N-phenylethane-1-sulfonamide] as the molecule, how does the Ki (human H4 receptor; [1]) read?
A: Its Ki is less than 100 nM.

Q: What about the Ki (human H1 receptor) of the same molecule?
A: The Ki was less than 1000 nM.

Q: How did the Ki (human H4 receptor; [1]) turn out when `CN1CCN(c2nc(NCCS(=O)(=O)Nc3cccc(OC(F)(F)F)c3)c3cc(Cl)ncc3n2)CC1` [Example 77, 2-((6-chloro-2-(4-methylpiperazin-1-yl)pyrido[3,4-d]pyrimidin-4-yl)amino)-N-(3-(trifluoromethoxy)phenyl)ethane-1-sulfonamide] was run?
A: Its Ki is less than 1000 nM.

Q: `CN(c1ccccc1)S(=O)(=O)CCNc1nc(N2CCNCC2)nc2cnc(Cl)cc12` [Example 27, 2-((6-chloro-2-(piperazin-1-yl)pyrido[3,4-d]pyrimidin-4-yl)amino)-N-methyl-N-phenylethane-1-sulfonamide] was tested. Which Ki (human H4 receptor; [1]) did it give?
A: Its Ki is less than 100 nM.

Q: What does the source list for `CN1CCN(c2nc(NCc3ccsc3)c3cc(Cl)ncc3n2)CC1` [Example 5, 6-chloro-2-(4-methylpiperazin-1-yl)-N-(thiophen-3-ylmethyl)pyrido[3,4-d]pyrimidin-4-amine]?
A: Ki (human H4 receptor; [1]): < 1000 nM; Ki (human H1 receptor): < 1000 nM

Q: How did the Ki (human H4 receptor; [1]) turn out when `CC(C)c1cc2c(NCCc3cccs3)nc(N3CCN(C)CC3)nc2cn1` [Example 53, 6-isopropyl-2-(4-methylpiperazin-1-yl)-N-(2-(thiophen-2-yl)ethyl)pyrido[3,4-d]pyrimidin-4-amine] was run?
A: The Ki was less than 1000 nM.

Q: For `CN1CCN(c2nc(NCCS(=O)(=O)Nc3cccc(Cl)c3)c3cc(Cl)ncc3n2)CC1` [Example 76, 2-((6-chloro-2-(4-methylpiperazin-1-yl)pyrido[3,4-d]pyrimidin-4-yl)amino)-N-(3-chlorophenyl)ethane-1-sulfonamide], which Ki (human H4 receptor; [1]) is on record?
A: The Ki was less than 100 nM.

Q: Which Ki (human H4 receptor; [1]) does the source give for `CN1CCN(c2nc(NCCS(=O)(=O)Nc3ccccc3Cl)c3cc(Cl)ncc3n2)CC1` [Example 72, 2-((6-chloro-2-(4-methylpiperazin-1-yl)pyrido[3,4-d]pyrimidin-4-yl)amino)-N-(2-chlorophenyl)ethane-1-sulfonamide] here?
A: The Ki was less than 100 nM.

Q: What about the Ki (human H1 receptor) of the same molecule?
A: The Ki was less than 1000 nM.

Q: For `Cc1cccc(NS(=O)(=O)CCNc2nc(N3CCN(C)CC3)nc3cnc(Cl)cc23)c1` [Example 79, 2-((6-chloro-2-(4-methylpiperazin-1-yl)pyrido[3,4-d]pyrimidin-4-yl)amino)-N-(m-tolyl)ethane-1-sulfonamide], which Ki (human H4 receptor; [1]) is on record?
A: The Ki was less than 100 nM.

Q: For `O=S(=O)(CCNc1nc(N2CCN3CCCC3C2)nc2cnc(Cl)cc12)Nc1ccccc1` (stereo not shown) [Example 37, 2-((6-chloro-2-(hexahydropyrrolo[1,2-a]pyrazin-2(1H)-yl)pyrido[3,4-d]pyrimidin-4-yl)amino)-N-phenylethane-1-sulfonamide], which Ki (human H4 receptor; [1]) is on record?
A: Its Ki is less than 100 nM.

Q: How did the Ki (human H4 receptor; [1]) turn out when `CN1CCN(c2nc(NCc3nccs3)c3cc(Cl)ncc3n2)CC1` [Example 7, 6-chloro-2-(4-methylpiperazin-1-yl)-N-(thiazol-2-ylmethyl)pyrido[3,4-d]pyrimidin-4-amine] was run?
A: Its Ki is less than 1000 nM.

Q: Which Ki (human H4 receptor; [1]) does the source give for `CN1CCN(c2nc(NCCS(=O)(=O)Nc3cccc(Cl)n3)c3cc(Cl)ncc3n2)CC1` [Example 87, 2-((6-chloro-2-(4-methylpiperazin-1-yl)pyrido[3,4-d]pyrimidin-4-yl)amino)-N-(6-chloropyridin-2-yl)ethane-1-sulfonamide] here?
A: The Ki was less than 1000 nM.

Q: How did the Ki (human H4 receptor; [1]) turn out when `COc1ccccc1NS(=O)(=O)CCNc1nc(N2CCN(C)CC2)nc2cnc(Cl)cc12` [Example 74, 2-((6-chloro-2-(4-methylpiperazin-1-yl)pyrido[3,4-d]pyrimidin-4-yl)amino)-N-(2-methoxyphenyl)ethane-1-sulfonamide] was run?
A: The Ki was less than 100 nM.

Q: What about the Ki (human H1 receptor) of the same molecule?
A: The Ki was less than 1000 nM.

Q: What does the source list for `CN1CCN(c2nc(NCCS(=O)(=O)Cc3ccccc3)c3cc(Cl)ncc3n2)CC1` [Example 94, N-(2-(benzylsulfonyl)ethyl)-6-chloro-2-(4-methylpiperazin-1-yl)pyrido[3,4-d]pyrimidin-4-amine]?
A: Ki (human H4 receptor; [1]): < 100 nM; Ki (human H1 receptor): < 1000 nM

Q: For `O=S(=O)(CCNc1nc(C2=CCNCC2)nc2cnc(Cl)cc12)Nc1ccccc1` [Example 41, 2-((6-chloro-2-(1,2,3,6-tetrahydropyridin-4-yl)pyrido[3,4-d]pyrimidin-4-yl)amino)-N-phenylethane-1-sulfonamide], which Ki (human H4 receptor) is on record?
A: The Ki was less than 100 nM.

Q: What does the source list for `CCCc1cc2c(NCc3cccs3)nc(N3CCN(C)CC3)nc2cn1` [Example 49, 2-(4-methylpiperazin-1-yl)-6-propyl-N-(thiophen-2-ylmethyl)pyrido[3,4-d]pyrimidin-4-amine]?
A: Ki (human H4 receptor; [1]): < 1000 nM; Ki (human H1 receptor): < 1000 nM

Q: Which IC50 (human H4 receptor) does the source give for `CN1CCN(c2nc(NCc3cccs3)c3cnc(Cl)cc3n2)CC1` [Example 3P, reference compound] here?
A: Its IC50 is 889 nM.

Q: And the inhibition at 1 µM (human H4 receptor)?
A: The inhibition at 1 µM was 68%.

Q: And the Ki (human H4 receptor; [2])?
A: Its Ki is 340 nM.

Q: `CN1CCN(c2nc(NCCS(=O)(=O)Nc3ccccc3)c3cc(Cl)ncc3n2)CC1` [Example 16, 2-((6-chloro-2-(4-methylpiperazin-1-yl)pyrido[3,4-d]pyrimidin-4-yl)amino)-N-phenylethane-1-sulfonamide] was tested. Which Ki (human H4 receptor; [1]) did it give?
A: Its Ki is less than 100 nM.

Q: With `Cc1ccc(CNc2nc(N3CCN(C)CC3)nc3cnc(Cl)cc23)s1` [Example 69, 6-chloro-2-(4-methylpiperazin-1-yl)-N-((5-methylthiophen-2-yl)methyl)pyrido[3,4-d]pyrimidin-4-amine] as the molecule, how does the Ki (human H4 receptor; [1]) read?
A: Its Ki is less than 1000 nM.

Q: What about the Ki (human H1 receptor) of the same molecule?
A: Its Ki is less than 1000 nM.

Q: Which Ki (human H4 receptor; [1]) does the source give for `O=S(=O)(CCNc1nc(N2CCNCC2)nc2cnc(Cl)cc12)Nc1ccccc1` [Example 26, 2-((6-chloro-2-(piperazin-1-yl)pyrido[3,4-d]pyrimidin-4-yl)amino)-N-phenylethane-1-sulfonamide] here?
A: Its Ki is less than 100 nM.
